# According to patent US11739098B2 (BRISTOL-MYERS SQUIBB COMPANY, priority 2017, dated 2023):
# Columns and labels:
# Format in all cases: cell-based
# [1] = target: T1, human TLR8 (Homo sapiens, UniProt Q9NR97); test: TLR8 inhibition reporter assay (HEK-Blue cells, SEAP reporter, R848 stimulation); details: HEK-Blue cells overexpressing human TLR8, SEAP reporter, R848 15.9 μM
# T1 construct: host or cells: HEK-Blue cells (HEK293-derived reporter line)
# T1 sequence (Q9NR97 27-1041): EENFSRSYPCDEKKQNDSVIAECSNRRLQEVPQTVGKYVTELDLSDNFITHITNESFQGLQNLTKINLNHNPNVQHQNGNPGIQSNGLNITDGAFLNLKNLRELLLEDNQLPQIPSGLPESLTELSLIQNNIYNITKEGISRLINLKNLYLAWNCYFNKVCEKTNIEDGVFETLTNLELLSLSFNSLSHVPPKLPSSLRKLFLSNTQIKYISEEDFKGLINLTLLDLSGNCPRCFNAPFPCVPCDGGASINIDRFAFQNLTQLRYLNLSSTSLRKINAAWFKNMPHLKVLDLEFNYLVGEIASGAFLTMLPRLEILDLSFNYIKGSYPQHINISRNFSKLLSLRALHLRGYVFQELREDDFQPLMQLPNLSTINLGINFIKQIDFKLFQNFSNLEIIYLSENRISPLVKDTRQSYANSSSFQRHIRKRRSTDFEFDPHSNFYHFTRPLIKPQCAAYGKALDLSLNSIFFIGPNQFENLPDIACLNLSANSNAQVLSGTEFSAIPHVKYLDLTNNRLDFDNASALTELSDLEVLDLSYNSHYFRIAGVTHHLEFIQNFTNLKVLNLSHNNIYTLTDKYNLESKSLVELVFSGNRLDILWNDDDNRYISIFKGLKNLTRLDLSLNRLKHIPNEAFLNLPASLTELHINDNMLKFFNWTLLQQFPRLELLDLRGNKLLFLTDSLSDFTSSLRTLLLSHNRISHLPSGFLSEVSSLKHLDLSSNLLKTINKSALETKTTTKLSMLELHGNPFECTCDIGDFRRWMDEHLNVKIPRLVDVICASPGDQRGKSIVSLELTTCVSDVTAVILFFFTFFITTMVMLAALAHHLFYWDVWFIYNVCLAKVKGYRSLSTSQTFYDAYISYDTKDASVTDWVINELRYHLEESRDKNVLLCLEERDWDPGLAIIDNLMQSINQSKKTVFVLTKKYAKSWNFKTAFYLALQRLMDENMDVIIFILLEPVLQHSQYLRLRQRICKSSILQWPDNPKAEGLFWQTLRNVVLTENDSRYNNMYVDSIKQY
# Outline: (§1)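 HEK-Blue cells overexpressing human TLR7, TLR8 or TLR9 (NF-κB/AP-1-driven SEAP) pre-treated 30 min at room temperature with compound (0.05 nM–50 μM), then stimulated with gardiquimod 7.5 μM (TLR7), R848 15.9 μM (TLR8) or ODN2006 5 nM (TLR9). SEAP read colorimetrically after 22 h at 37 °C; % inhibition calculated.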
# [2] = target: T2, human TLR7 (Homo sapiens, UniProt Q9NYK1); test: TLR7 inhibition reporter assay (HEK-Blue cells, SEAP reporter, gardiquimod stimulation); details: HEK-Blue cells overexpressing human TLR7, SEAP reporter, gardiquimod 7.5 μM
# T2 construct: host or cells: HEK-Blue cells (HEK293-derived reporter line)
# T2 sequence (Q9NYK1 27-1049): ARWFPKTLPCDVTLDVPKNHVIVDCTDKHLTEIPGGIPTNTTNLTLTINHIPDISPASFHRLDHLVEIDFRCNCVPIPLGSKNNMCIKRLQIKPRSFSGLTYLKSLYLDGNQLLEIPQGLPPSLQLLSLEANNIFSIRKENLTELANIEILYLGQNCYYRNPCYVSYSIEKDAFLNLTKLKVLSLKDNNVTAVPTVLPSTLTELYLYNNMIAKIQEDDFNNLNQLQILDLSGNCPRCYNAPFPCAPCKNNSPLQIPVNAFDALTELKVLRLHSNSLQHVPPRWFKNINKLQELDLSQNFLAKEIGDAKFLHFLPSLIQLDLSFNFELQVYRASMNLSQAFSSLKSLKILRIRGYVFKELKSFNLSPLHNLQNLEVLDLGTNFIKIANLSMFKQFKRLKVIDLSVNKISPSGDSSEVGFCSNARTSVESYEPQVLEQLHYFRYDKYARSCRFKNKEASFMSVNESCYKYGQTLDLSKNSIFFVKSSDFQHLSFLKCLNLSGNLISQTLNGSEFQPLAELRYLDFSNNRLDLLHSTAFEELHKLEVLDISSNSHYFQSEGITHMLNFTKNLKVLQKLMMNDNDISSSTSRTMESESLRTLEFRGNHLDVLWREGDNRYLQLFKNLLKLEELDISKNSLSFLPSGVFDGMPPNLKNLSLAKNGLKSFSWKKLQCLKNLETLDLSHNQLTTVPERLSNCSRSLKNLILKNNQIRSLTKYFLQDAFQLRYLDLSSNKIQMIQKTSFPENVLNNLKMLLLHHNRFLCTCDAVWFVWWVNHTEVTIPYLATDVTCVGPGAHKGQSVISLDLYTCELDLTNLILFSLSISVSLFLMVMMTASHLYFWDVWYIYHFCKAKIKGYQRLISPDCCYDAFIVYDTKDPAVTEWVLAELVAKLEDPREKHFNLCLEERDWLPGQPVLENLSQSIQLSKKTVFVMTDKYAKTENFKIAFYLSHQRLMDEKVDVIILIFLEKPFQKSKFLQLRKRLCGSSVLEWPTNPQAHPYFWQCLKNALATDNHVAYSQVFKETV
# Outline: as §1
# [3] = target: T3, human TLR9 (Homo sapiens, UniProt Q9NR96); test: TLR9 inhibition reporter assay (HEK-Blue cells, SEAP reporter, ODN2006 stimulation); details: HEK-Blue cells overexpressing human TLR9, SEAP reporter, ODN2006 5 nM
# T3 construct: host or cells: HEK-Blue cells (HEK293-derived reporter line)
# T3 sequence (Q9NR96 26-1032): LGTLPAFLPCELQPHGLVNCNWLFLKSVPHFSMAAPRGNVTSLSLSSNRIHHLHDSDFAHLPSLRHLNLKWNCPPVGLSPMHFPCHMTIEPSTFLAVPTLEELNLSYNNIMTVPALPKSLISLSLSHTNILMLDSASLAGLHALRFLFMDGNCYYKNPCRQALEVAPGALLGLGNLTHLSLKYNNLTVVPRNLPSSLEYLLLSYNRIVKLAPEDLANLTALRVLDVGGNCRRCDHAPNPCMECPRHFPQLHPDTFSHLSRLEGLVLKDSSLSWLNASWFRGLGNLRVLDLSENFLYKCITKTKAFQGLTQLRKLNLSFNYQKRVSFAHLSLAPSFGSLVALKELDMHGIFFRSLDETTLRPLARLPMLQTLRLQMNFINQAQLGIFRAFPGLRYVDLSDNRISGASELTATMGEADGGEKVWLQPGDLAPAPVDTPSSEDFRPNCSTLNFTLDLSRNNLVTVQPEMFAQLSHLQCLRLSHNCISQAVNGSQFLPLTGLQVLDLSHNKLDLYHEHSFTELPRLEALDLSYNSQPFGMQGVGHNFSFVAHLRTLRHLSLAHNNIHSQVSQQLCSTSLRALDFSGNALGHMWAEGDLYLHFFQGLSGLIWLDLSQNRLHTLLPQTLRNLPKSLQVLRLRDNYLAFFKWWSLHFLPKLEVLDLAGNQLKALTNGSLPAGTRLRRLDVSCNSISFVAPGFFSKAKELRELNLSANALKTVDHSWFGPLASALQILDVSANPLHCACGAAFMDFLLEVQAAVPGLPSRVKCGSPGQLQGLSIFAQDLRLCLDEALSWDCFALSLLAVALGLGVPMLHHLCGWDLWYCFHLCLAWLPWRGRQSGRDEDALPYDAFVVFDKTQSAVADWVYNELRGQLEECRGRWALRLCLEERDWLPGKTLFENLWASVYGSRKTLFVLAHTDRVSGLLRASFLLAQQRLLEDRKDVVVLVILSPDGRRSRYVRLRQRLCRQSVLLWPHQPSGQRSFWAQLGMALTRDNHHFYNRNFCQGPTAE
# Outline: as §1
IC50 [1],IC50 [2],IC50 [3],Structure (SMILES)
1000 to 50000 nM,< 100 nM,1000 to 50000 nM,"Cc1nc2cc(-c3[nH]c4ccc(C5CCN(C(=O)[C@@H]6C[C@@H](O)CN6)CC5)cc4c3C(C)C)ccn2n1 [Example 540, ((2S,4R)-4-hydroxypyrrolidin-2-yl)(4-(3-isopropyl-2-(2-methyl-[1,2,4]triazolo[1,5-a]pyridin-7-yl)-1H-indol-5-yl)piperidin-1-yl) methanone]"
< 100 nM,< 100 nM,100 to 1000 nM,"Cc1nc(CN2CCC(c3ccc4[nH]c(-c5ccc6nccn6c5)c(C(C)C)c4c3)CC2)c[nH]1 [Example 938, 6-(3-isopropyl-5-(1-((2-methyl-1H-imidazol-4-yl)methyl)piperidin-4-yl)-1H-indol-2-yl)imidazo[1,2-a]pyridine]"
< 100 nM,< 100 nM,1000 to 50000 nM,"CC(C)c1c(-c2ccnc3[nH]ncc23)[nH]c2ccc(C3CCN(Cc4ccccn4)CC3)cc12 [Example 866, 4-(3-isopropyl-5-(1-(pyridin-2-ylmethyl)piperidin-4-yl)-1H-indol-2-yl)-1H-pyrazolo[3,4-b]pyridine]"
100 to 1000 nM,< 100 nM,100 to 1000 nM,"CNC(=O)CN1CCC(c2ccc3[nH]c(-c4cc(C)c5nc(C)c(C)n5c4)c(C(C)C)c3c2)CC1 [Example 429, 2-(4-(3-isopropyl-2-(2,3,8-trimethylimidazo[1,2-a]pyridin-6-yl)-1H-indol-5-yl)piperidin-1-yl)-N-methylacetamide]"
< 100 nM,< 100 nM,1000 to 50000 nM,"CC(C)c1c(-c2cn(C)c3ncccc23)[nH]c2ccc(C3CCN(C4CCOCC4)CC3)cc12 [Example 694, 3-(3-isopropyl-5-(1-(tetrahydro-2H-pyran-4-yl)piperidin-4-yl)-1H-indol-2-yl)-1-methyl-1H-pyrrolo[2,3-b]pyridine]"
1000 to 50000 nM,1000 to 50000 nM,1000 to 50000 nM,"CCc1c(-c2cccc3[nH]ncc23)[nH]c2ccc(C3CCN(CC(=O)N(C)C)CC3)cc12 [Example 389, 2-(4-(3-ethyl-2-(1H-indazol-4-yl)-1H-indol-5-yl)piperidin-1-yl)-N,N-dimethylacetamide]"

# Continued, compound first:
Structure (SMILES),IC50 [1],IC50 [2],IC50 [3]
"Cc1cn2cc(-c3[nH]c4ccc(C5CCN(C(=O)CC(C)O)CC5)cc4c3C(C)C)c(C)cc2n1 (stereo not drawn) [Example 596, 1-(4-(2-(2,7-dimethylimidazo[1,2-a]pyridin-6-yl)-3-isopropyl-1H-indol-5-yl)piperidin-1-yl)-3-hydroxybutan-1-one]",> 3130 nM,< 100 nM,1000 to 50000 nM
"CCc1c(-c2ccnc3[nH]cc(C)c23)[nH]c2ccc(C3CCNCC3)cc12 [Example 217, 4-(3-ethyl-5-(piperidin-4-yl)-1H-indol-2-yl)-3-methyl-1H-pyrrolo[2,3-b]pyridine]",100 to 1000 nM,100 to 1000 nM,100 to 1000 nM
"CNC(=O)CN1CCC(c2ccc3[nH]c(-c4ccc(C)n5ncnc45)c(C(C)C)c3c2)CC1 [Example 386, 2-(4-(3-isopropyl-2-(5-methyl-[1,2,4]triazolo[1,5-a]pyridin-8-yl)-1H-indol-5-yl)piperidin-1-yl)-N-methylacetamide]",100 to 1000 nM,< 100 nM,1000 to 50000 nM
"CCc1c(-c2cnc3[nH]c(=O)[nH]c3c2)[nH]c2ccc(C3CCNCC3)cc12 [Example 180, 6-(3-ethyl-5-(piperidin-4-yl)-1H-indol-2-yl)-1,3-dihydro-2H-imidazo[4,5-b]pyridin-2-one]",1000 to 50000 nM,1000 to 50000 nM,1000 to 50000 nM
"Cc1cn2c(C)cc(-c3[nH]c4ccc(C5CCNCC5)cc4c3C(C)C)cc2n1 [Example 160, 7-(3-isopropyl-5-(piperidin-4-yl)-1H-indol-2-yl)-2,5-dimethylimidazo[1,2-a]pyridine]",100 to 1000 nM,100 to 1000 nM,100 to 1000 nM
"Cc1nc2c(-c3[nH]c4ccc(C5CCN(C(=O)CN(C)C)CC5)cc4c3C(C)C)ccc(C)n2n1 [Example 515, 1-(4-(2-(2,5-dimethyl-[1,2,4]triazolo[1,5-a]pyridin-8-yl)-3-isopropyl-1H-indol-5-yl)piperidin-1-yl)-2-(dimethylamino)ethan-1-one]",100 to 1000 nM,1000 to 50000 nM,1000 to 50000 nM
"CC(C)c1c(-c2cn(C)c3ncccc23)[nH]c2ccc(C3CCNCC3)cc12 [Example 48, 3-(3-isopropyl-5-(piperidin-4-yl)-1H-indol-2-yl)-1-methyl-1H-pyrrolo[2,3-b]pyridine]",< 100 nM,< 100 nM,1000 to 50000 nM
"CCc1c(-c2ccnc3[nH]ncc23)[nH]c2ccc(C3CCN(Cc4csnn4)CC3)cc12 [Example 930, 4-((4-(3-ethyl-2-(1H-pyrazolo[3,4-b]pyridin-4-yl)-1H-indol-5-yl)piperidin-1-yl)methyl)-1,2,3-thiadiazole]",< 100 nM,100 to 1000 nM,1000 to 50000 nM
